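These data come from cells grown in 96-well plates and exposed to compound for 48 hours at five concentrations. Here, GI50 denotes the concentration required for 50% inhibition of growth. TGI marks complete inhibition of growth.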 Where only a bound is given, the exact number is not on record here.

The source of these data is PubChem BioAssay (NCI).

Among the test systems are HS 578T breast; OVCAR-5 ovarian; SK-MEL-28 melanoma; TK-10 renal; NCI-H522 lung; HCT-116 colon; SK-OV-3 ovarian; MALME-3M melanoma; UO-31 renal; HOP-62 NSCLC.
Holding throughout (assay): DTP human tumour cell line panel, 48 h

With `O=C1c2ccccc2C(=O)c2c(NC(=O)c3ccc4c5c(ncnc35)-c3ccccc3C4=O)cccc21`, the TGI in the test on HS 578T breast is more than 100 µM; with OVCAR-5 ovarian, more than 100 µM; in the test with SK-MEL-28 melanoma it was more than 100 µM; with TK-10 renal it was 47.6 µM; with NCI-H522 lung, more than 100 µM; in the test on HCT-116 colon, more than 100 µM. The concentration for total growth inhibition (TGI) with SK-OV-3 ovarian was 48.2 µM; in the test with MALME-3M melanoma, more than 100 µM; with UO-31 renal, more than 100 µM; with HOP-62 NSCLC it was 42.7 µM.

Take `CC(=O)N[C@@H](Cc1ccc(OP(=O)(O)O)cc1)C(=O)N[C@H]1CCC(=O)N2CCC[C@@H](C(=O)NCc3ccc(O)cc3)N2C1=O`: the GI50 in the test on HS 578T breast, in the test on OVCAR-5 ovarian, in the test with SK-MEL-28 melanoma, in the test with TK-10 renal, in the test with NCI-H522 lung and with HCT-116 colon was more than 25 µM in each case. The GI50 in the test with SK-OV-3 ovarian was more than 25 µM; with MALME-3M melanoma, more than 25 µM; in the test with UO-31 renal, 24.2 µM; in the test with HOP-62 NSCLC, more than 25 µM. Also, the total growth inhibition concentration (TGI) in the test with HS 578T breast, in the test with OVCAR-5 ovarian, with SK-MEL-28 melanoma, in the test with TK-10 renal, in the test with NCI-H522 lung and in the test on HCT-116 colon was more than 25 µM in each case. Moreover, the TGI in the test on SK-OV-3 ovarian, with MALME-3M melanoma, in the test with UO-31 renal and in the test with HOP-62 NSCLC was more than 25 µM throughout.

Consider `O=[N+]([O-])c1ccc(-c2ccccc2)c([As](=O)(O)O)c1`, for which the GI50 in the test with HS 578T breast was 0.798 µM; in the test on OVCAR-5 ovarian, 28.4 µM; in the test on SK-MEL-28 melanoma, 18 µM; in the test on TK-10 renal, 17.5 µM; in the test with NCI-H522 lung, 6.92 µM; with HCT-116 colon, 10.9 µM. Also, the GI50 was 24.2 µM in the test with SK-OV-3 ovarian, 11.6 µM in the test with MALME-3M melanoma, 12.3 µM in the test with UO-31 renal and 3.11 µM with HOP-62 NSCLC. Besides, the TGI in the test on HS 578T breast was 18.4 µM; with OVCAR-5 ovarian, more than 100 µM; in the test on SK-MEL-28 melanoma, 50.3 µM; with TK-10 renal, 38.5 µM; in the test with NCI-H522 lung it was 21.3 µM; in the test with HCT-116 colon it was 25.4 µM. Also, the TGI stood at 91.5 µM in the test on SK-OV-3 ovarian, 34.6 µM with MALME-3M melanoma, 44.8 µM in the test with UO-31 renal and 18 µM with HOP-62 NSCLC.

Take `CN(C)CCOc1nc2ccccc2c2c1-c1ccc(Cl)cc1C2=O`: the GI50 with HS 578T breast is 0.728 µM; in the test with OVCAR-5 ovarian, 1.27 µM; with SK-MEL-28 melanoma it was 1.65 µM; in the test on TK-10 renal, 1.36 µM; in the test on NCI-H522 lung, 0.573 µM; with HCT-116 colon it was 0.422 µM. Further, the GI50 with SK-OV-3 ovarian was 1.76 µM; with MALME-3M melanoma, 1.07 µM; in the test on UO-31 renal, 0.222 µM; with HOP-62 NSCLC it was 1.21 µM. For the same molecule, the total growth inhibition concentration (TGI) in the test on HS 578T breast is 3.59 µM; with SK-MEL-28 melanoma, 3.15 µM; in the test on TK-10 renal it was 3.18 µM; in the test with NCI-H522 lung, 2.09 µM; in the test with HCT-116 colon it was 1.52 µM; with SK-OV-3 ovarian it was more than 37 µM. The TGI in the test with MALME-3M melanoma is 2.43 µM; in the test on UO-31 renal, 1.27 µM.

As for `COc1ccc(-c2cncn2-c2cc(OC)c(OC)c(OC)c2)cc1F`, the GI50 in the test on HS 578T breast is 0.332 µM; with OVCAR-5 ovarian, 0.0789 µM; in the test with SK-MEL-28 melanoma, 0.0359 µM; in the test on TK-10 renal it was 18.4 µM; with NCI-H522 lung, less than 0.01 µM; in the test on HCT-116 colon, less than 0.0158 µM. The GI50 is less than 0.0486 µM in the test with SK-OV-3 ovarian, 49 µM with MALME-3M melanoma, 0.0717 µM in the test on UO-31 renal and less than 0.0365 µM in the test with HOP-62 NSCLC. The TGI with HS 578T breast is more than 100 µM; with OVCAR-5 ovarian, more than 100 µM; in the test with SK-MEL-28 melanoma, more than 100 µM; in the test on TK-10 renal, more than 100 µM; in the test with NCI-H522 lung, 1.03 µM; in the test on HCT-116 colon it was 15.8 µM. The total growth inhibition concentration (TGI) is 57.2 µM in the test with SK-OV-3 ovarian, more than 100 µM in the test with MALME-3M melanoma, 64.8 µM in the test with UO-31 renal and more than 100 µM in the test with HOP-62 NSCLC.

On to `N#CC[C@H](C1CCCC1)n1cc(-c2ncnc3[nH]ccc23)cn1`, for which the GI50 is 5.19 µM with HS 578T breast; 26.7 µM with OVCAR-5 ovarian; 31.8 µM in the test on SK-MEL-28 melanoma; 13.2 µM in the test on TK-10 renal; 21 µM with NCI-H522 lung; 20.2 µM with HCT-116 colon. Also, the GI50 with SK-OV-3 ovarian is 24.7 µM; in the test with MALME-3M melanoma, 34.1 µM; in the test on UO-31 renal, 4.53 µM; with HOP-62 NSCLC, 17.2 µM. The TGI in the test with HS 578T breast was 69.9 µM; in the test on OVCAR-5 ovarian it was more than 78.5 µM; with SK-MEL-28 melanoma, more than 100 µM; in the test with TK-10 renal it was more than 100 µM; in the test with NCI-H522 lung, 57.9 µM; in the test on HCT-116 colon it was more than 100 µM. Further, the TGI was more than 88 µM with SK-OV-3 ovarian, more than 100 µM with MALME-3M melanoma, 82 µM in the test with UO-31 renal and more than 100 µM with HOP-62 NSCLC.
